We go through seven molecules from US6958416B2, “Valproyltaurinamide derivatives as anticonvulsant amd CNS active agents” (Yissum Research Development Company of the Hebrew …, priority 2001, dated 2005).

Data set [1] concerns maximal electroshock seizure (MES). Put plainly: maximal electroshock seizure test (MES). The format is in vivo. The note with it: rats; for anticonvulsant activity in the MES test: result in words; for ED50: Rattus norvegicus. An excerpt: (§1) The first model the maximal electroshock seizure test (MES), is used to show efficacy for antiepileptic agents against partial and generalized seizure type epilepsy, the common epilepsy among therapy resistant epileptic patients. The second model, the subcutaneous pentylenetetrazole test (s.c. Met) which measures seizure threshold and is a standard screening procedure to show efficacy for agents against […] seizures. In these studies, convulsions were inhibited or prevented after oral (p.o.) and intraperitoneal (ip) administration of the compounds.
A general note: In the maximal electroshock model the usual endpoint is tonic extension of the hind limbs.

The test system of data set [2] is subcutaneous pentylenetetrazole induced convulsions (seizure threshold). Put plainly: subcutaneous pentylenetetrazole test (s.c. Met). The format is in vivo. Conditions: rats, table title: oral administration; for ED50: Rattus norvegicus, read-out: sc Met ED50.
From the text: as §1

The subject of data set [3] is audiogenic seizures. Put plainly: audiogenic seizures in Frings audiogenic seizure susceptible mice. The format is in vivo. Conditions: for potency compared with VPA in audiogenic seizure model: in words. The method, then:
In mice the compounds were tested for their ability to protect against audiogenic seizures in the Frings audiogenic seizure susceptible mice after ip administration. This model is considered as a good screening model in pharmacologic studies for CNS active compounds.

Data set [4] can be described thus: Neurotoxicity, Gait and Stance test. How it is done: Neurotoxicity of the agents was assessed in rats (p.o. and ip administration) in the Gait and Stance test and in mice in the Rotarod Ataxia test, which assess minimal neurotoxicity.
For data set [5], the system named is 6 Hz psychomotor seizure. Put plainly: 6 Hz psychomotor seizure model. The format is in vivo. The note with it: Mus musculus; mice ip, stimulation intensity 22 mA.
The nature of data set [6]: Pharmacokinetics in mongrel dogs. The format is in vivo. How it is done:
The pharmacokinetics of Compound A were evaluated in mongrel dogs.

The mark [7] stands for this setting: po, p.o. administration, read-out: MES ED50 (mg/kg po).

Read-outs that look alike come from different tables or passages of the source.

Take `CCCC(CCC)C(=O)NCCS(=O)(=O)N(C)C` [B, N-(2-Propylpentanoyl)taurine-N′,N′-dimethylamide]: the “MES ED50 (mg/kg ip)” value in data set [1] (ip administration) turned out to be 50 mg/kg. In addition, in data set [1] (p.o. administration), the “MES ED50 (mg/kg po)” value is more than 160 mg/kg. For the same molecule, in data set [1], the “anticonvulsant activity in the MES test” value was “showed anticonvulsant activity”. Also, the “sc Met ED50” value in data set [2] was more than 200 mg/kg. In addition, in data set [3] (ip administration), the “Audiogenic seizures ED50” value was determined as 134 mg/kg. For the same molecule, the “potency compared with VPA in audiogenic seizure model” value in data set [3] (ip) is given as “more potent than VPA”. Moreover, the “Neurotoxicity TD50 (mg/kg ip)” value in data set [4] (rats, ip administration) amounted to 175 mg/kg. The “TD50 compared with VPA” value in data set [4] (rats, in words) was “significantly higher than TD50 for VPA”.

Take `CCCC(CCC)C(=O)NCCS(=O)(=O)NC(C)C` [C, N-(2-Propylpentanoyl)taurine-N′-isopropylamide]: in data set [1] (ip administration), the “MES ED50 (mg/kg ip)” value is 52 mg/kg. Further, in data set [1] (p.o. administration), the “MES ED50 (mg/kg po)” value amounted to 63 mg/kg. Further, the “anticonvulsant activity in the MES test” value in data set [1] is on record as “showed anticonvulsant activity”. The “sc Met ED50” value in data set [2] is given as more than 250 mg/kg. The “Audiogenic seizures ED50” value in data set [3] (ip administration) was found to be 126 mg/kg. For the same molecule, in data set [3] (ip), the “potency compared with VPA in audiogenic seizure model” value was “more potent than VPA”. The “Neurotoxicity TD50 (mg/kg ip)” value in data set [4] (rats, ip administration) is given as 627 mg/kg. Moreover, the “TD50 compared with VPA” value in data set [4] (rats, in words) is on record as “significantly higher than TD50 for VPA”.

Take `CCCC(CCC)C(=O)NCCS(N)(=O)=O` [Compound A, N-(2-Propylpentanoyl)taurinamide]: the ED50 is 65 mg/kg in data set [1] (setting [7]); 50 mg/kg in data set [1] (ip administration, read-out: MES ED50 (mg/kg ip)); more than 250 mg/kg in data set [2]; 50 to 140 mg/kg in data set [3] (Mus musculus, ip, ip administration); 188 mg/kg in data set [5]. For the same molecule, the “anticonvulsant activity in the MES test” value in data set [1] is “showed anticonvulsant activity”. Further, in data set [3] (ip administration), the “Audiogenic seizures ED50” value turned out to be 51 mg/kg. Also, the “audiogenic seizure ED50 compared with VPA” value in data set [3] (ip, relative to VPA) amounted to 3 times lower. In data set [4] (rat, in vivo), the “TD50 compared with VPA” value was “significantly higher than TD50 for VPA”. Moreover, the “Neurotoxicity TD50 (mg/kg ip)” value in data set [4] (rat, in vivo, ip) is reported as more than 300 mg/kg. The TD50 in data set [4] (rat, in vivo, ip) was more than 300 mg/kg; in data set [4] (rat, in vivo, po) it was more than 500 mg/kg. The “Neurotoxicity TD50 (mg/kg po)” value in data set [4] (rat, in vivo, po) is recorded as more than 500 mg/kg. The half-life (usually the time needed for the level to fall by half in the phase considered) in data set [6] (dog, in vivo) was 5.6 h. Further, the Vd in data set [6] (dog, in vivo, read-out: Volume of distribution at steady state (Vss)) worked out at 0.84 L/kg. The clearance (as a rule, the rate of elimination divided by the concentration) in data set [6] (dog, in vivo, read-out: total body clearance (CL) (converted)) was 1.83 mL/min/kg. Further, the liver extraction ratio entry in data set [6] (in words) is recorded as “low”.

Regarding `CCCC(CCC)C(=O)NCCS(=O)(=O)N(CC)CC` [N-(2-n-propylpentanoyl)taurine-N′,N′-diethylamide], in data set [1], the “anticonvulsant activity in the MES test” value is reported as “showed anticonvulsant activity”.

With `CCCC(CCC)C(=O)NCCS(=O)(=O)NCC` [N-(2-n-propylpentanoyl)taurine-N′-ethylamide], the “anticonvulsant activity in the MES test” value in data set [1] is on record as “showed anticonvulsant activity”.

Take `CCCC(CCC)C(=O)NCCS(=O)(=O)NC` [N-(2-n-propylpentanoyl)taurine-N′-methylamide]: the “anticonvulsant activity in the MES test” value in data set [1] is “showed anticonvulsant activity”.

Consider `CCCC(CCC)C(=O)O` [VPA, valproic acid, reference compound], for which the ED50 in data set [1] (setting [7]) came to 490 mg/kg; in data set [2] it was 180 mg/kg. The TD50 in data set [4] (rat, in vivo, po) is 200 mg/kg.
